Test results taken from patent US12077503B2, “Substituted cyclic amides and their use as herbicides” (FMC CORPORATION, priority 2015, dated 2024).

Key:
Format in all cases: in vivo
[1] = test system: barnyardgrass (Echinochloa crus-galli); assay: Test G Pre-Emergence Protocol; conditions: Echinochloa crus-galli, pre-emergence, 312 h, evaluated after 13 days; for pest or weed control at 15.625 g/ha: 15.625 g ai/ha; for pest or weed control at 15.625 g/ha / pest or weed control at 250 g/ha: read-out: Barnyardgrass damage rating (100=total damage to plant; 0=no damage to plant); for pest or weed control at 62.5 g/ha: 62.5 g ai/ha, 100=total damage to plant, 0=no damage to plant, read-out: Barnyardgrass damage rating; for pest or weed control at 250 g/ha: 250 g ai/ha
Procedure, shortened: (§1)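 Test compound in 0.5% Tween 20 acetone/water (50:50) was applied at three rates (15.625, 62.5, 250 g/ha) to soil sown one day earlier. After 13 days plants were scored for injury, where 0 means unaffected and 100 means completely damaged.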

[2] = test system: redroot pigweed (Amaranthus retroflexus); assay: Test G Pre-Emergence Protocol; conditions: evaluated after 13 days; for pest or weed control at 62.5 g/ha: 62.5 g ai/ha, 100=total damage to plant, 0=no damage to plant, read-out: Pigweed, Redroot damage rating
Procedure, shortened: as §1

[3] = test system: ivy-leaved morning glory (Ipomoea hederacea); assay: Test G Pre-Emergence Protocol; conditions: evaluated after 13 days; for pest or weed control at 15.625 g/ha: 15.625 g ai/ha; for pest or weed control at 62.5 g/ha: 62.5 g ai/ha, 100=total damage to plant, 0=no damage to plant, read-out: Morningglory, Ivy-leaved damage rating
Procedure, shortened: as §1

[4] = test system: corn (Zea mays); assay: Test G Pre-Emergence Protocol; conditions: evaluated after 13 days; for plant injury at 62.5 g/ha: 62.5 g ai/ha, 100=total damage to plant, 0=no damage to plant, read-out: Corn damage rating
Procedure, shortened: as §1

[5] = test system: velvetleaf (Abutilon theophrasti); assay: Test G Pre-Emergence Protocol; conditions: evaluated after 13 days; for pest or weed control at 62.5 g/ha: 62.5 g ai/ha, 100=total damage to plant, 0=no damage to plant, read-out: Velvetleaf damage rating
Procedure, shortened: as §1

[6] = test system: giant foxtail (Setaria faberi); assay: Test G Pre-Emergence Protocol; conditions: Setaria faberi, pre-emergence, 312 h, evaluated after 13 days; for pest or weed control at 15.625 g/ha: 15.625 g ai/ha; for pest or weed control at 15.625 g/ha / pest or weed control at 250 g/ha: read-out: Foxtail, Giant damage rating (100=total damage to plant; 0=no damage to plant); for pest or weed control at 62.5 g/ha: 62.5 g ai/ha, 100=total damage to plant, 0=no damage to plant, read-out: Foxtail, Giant damage rating; for pest or weed control at 250 g/ha: 250 g ai/ha
Procedure, shortened: as §1

[7] = test system: barnyardgrass (Echinochloa crus-galli); assay: Test G Post-Emergence Protocol; conditions: Echinochloa crus-galli, post-emergence, 312 h, read-out: Barnyardgrass damage rating; for pest or weed control at 15.625 g/ha: 15.625 g ai/ha, evaluated after 13 days (100=total damage to plant; 0=no damage to plant); for pest or weed control at 62.5 g/ha: 62.5 g ai/ha; for pest or weed control at 62.5 g/ha / pest or weed control at 250 g/ha: evaluated after 13 days, 100=total damage to plant, 0=no damage to plant; for pest or weed control at 250 g/ha: 250 g ai/ha
Procedure, shortened: (§2)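 Foliar application was made 8 days after sowing, using an aqueous spray of the active in acetone/water (50:50) with 0.5% Tween 20, at doses of 15.625, 62.5 or 250 g/ha. Injury was assessed 13 days later, where 100 meant the plant was fully damaged.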

[8] = test system: redroot pigweed (Amaranthus retroflexus); assay: Test G Post-Emergence Protocol; conditions: Amaranthus retroflexus, post-emergence, 312 h, read-out: Pigweed, Redroot damage rating; for pest or weed control at 15.625 g/ha: 15.625 g ai/ha, evaluated after 13 days (100=total damage to plant; 0=no damage to plant); for pest or weed control at 62.5 g/ha: 62.5 g ai/ha; for pest or weed control at 62.5 g/ha / pest or weed control at 250 g/ha: evaluated after 13 days, 100=total damage to plant, 0=no damage to plant; for pest or weed control at 250 g/ha: 250 g ai/ha
Procedure, shortened: as §2

[9] = test system: ivy-leaved morning glory (Ipomoea hederacea); assay: Test G Post-Emergence Protocol; conditions: Ipomoea, post-emergence, 312 h, read-out: Morningglory, Ivy-leaved damage rating; for pest or weed control at 15.625 g/ha: 15.625 g ai/ha, evaluated after 13 days (100=total damage to plant; 0=no damage to plant); for pest or weed control at 62.5 g/ha: 62.5 g ai/ha; for pest or weed control at 62.5 g/ha / pest or weed control at 250 g/ha: evaluated after 13 days, 100=total damage to plant, 0=no damage to plant; for pest or weed control at 250 g/ha: 250 g ai/ha
Procedure, shortened: as §2

[10] = test system: corn (Zea mays); assay: Test G Post-Emergence Protocol; conditions: Zea mays, post-emergence, 312 h, read-out: Corn damage rating; for plant injury at 15.625 g/ha: 15.625 g ai/ha, evaluated after 13 days (100=total damage to plant; 0=no damage to plant); for plant injury at 62.5 g/ha: 62.5 g ai/ha; for plant injury at 62.5 g/ha / plant injury at 250 g/ha: evaluated after 13 days, 100=total damage to plant, 0=no damage to plant; for plant injury at 250 g/ha: 250 g ai/ha
Procedure, shortened: as §2

[11] = test system: velvetleaf (Abutilon theophrasti); assay: Test G Post-Emergence Protocol; conditions: Abutilon theophrasti, post-emergence, 312 h, read-out: Velvetleaf damage rating; for pest or weed control at 15.625 g/ha: 15.625 g ai/ha, evaluated after 13 days (100=total damage to plant; 0=no damage to plant); for pest or weed control at 62.5 g/ha: 62.5 g ai/ha; for pest or weed control at 62.5 g/ha / pest or weed control at 250 g/ha: evaluated after 13 days, 100=total damage to plant, 0=no damage to plant; for pest or weed control at 250 g/ha: 250 g ai/ha
Procedure, shortened: as §2

[12] = test system: giant foxtail (Setaria faberi); assay: Test G Post-Emergence Protocol; conditions: Setaria faberi, post-emergence, 312 h, read-out: Foxtail, Giant damage rating; for pest or weed control at 15.625 g/ha: 15.625 g ai/ha, evaluated after 13 days (100=total damage to plant; 0=no damage to plant); for pest or weed control at 62.5 g/ha: 62.5 g ai/ha; for pest or weed control at 62.5 g/ha / pest or weed control at 250 g/ha: evaluated after 13 days, 100=total damage to plant, 0=no damage to plant; for pest or weed control at 250 g/ha: 250 g ai/ha
Procedure, shortened: as §2

[13] = Amaranthus retroflexus, pre-emergence, 312 h
[14] = Ipomoea, pre-emergence, 312 h, read-out: Morningglory, Ivy-leaved damage rating (100=total damage to plant; 0=no damage to plant)
[15] = Abutilon theophrasti, pre-emergence, 312 h

SMILES	pest or weed control at 15.625 g/ha [1]	pest or weed control at 62.5 g/ha [1]	pest or weed control at 250 g/ha [1]	pest or weed control at 62.5 g/ha [2, 13]	pest or weed control at 15.625 g/ha [3, 14]	pest or weed control at 62.5 g/ha ([3]; Ipomoea, pre-emergence, 312 h)	plant injury at 62.5 g/ha ([4]; Zea mays, pre-emergence, 312 h)	pest or weed control at 62.5 g/ha [5, 15]	pest or weed control at 15.625 g/ha [6]	pest or weed control at 62.5 g/ha [6]	pest or weed control at 250 g/ha [6]	pest or weed control at 15.625 g/ha [7]	pest or weed control at 62.5 g/ha [7]	pest or weed control at 250 g/ha [7]	pest or weed control at 15.625 g/ha [8]	pest or weed control at 62.5 g/ha [8]	pest or weed control at 250 g/ha [8]	pest or weed control at 15.625 g/ha [9]	pest or weed control at 62.5 g/ha [9]	pest or weed control at 250 g/ha [9]	other results
COc1cc(C)cc([C@@H]2CN(C)C(=O)[C@H]2C(=O)Nc2cccc(F)c2C)c1 (racemic) [Compound 1791]	70%	80%	90%	0%	10%	20%	70%	10%	80%	90%	90%	70%	80%	80%	0%	0%	0%	20%	70%	70%	pest or weed control at 15.625 g/ha ([2]; Amaranthus retroflexus, pre-emergence, 312 h, 15.625 g ai/ha, read-out: Pigweed, Redroot damage rating (100=total damage to plant; 0=no damage to plant)): 0%; pest or weed control at 250 g/ha ([2]; Amaranthus retroflexus, pre-emergence, 312 h, 250 g ai/ha, read-out: Pigweed, Redroot damage rating (100=total damage to plant; 0=no damage to plant)): 10%; pest or weed control at 250 g/ha ([3]; Ipomoea, pre-emergence, 312 h, 250 g ai/ha, read-out: Morningglory, Ivy-leaved damage rating (100=total damage to plant; 0=no damage to plant)): 80%; plant injury at 15.625 g/ha ([4]; Zea mays, pre-emergence, 312 h, 15.625 g ai/ha, read-out: Corn damage rating (100=total damage to plant; 0=no damage to plant)): 20%; plant injury at 250 g/ha ([4]; Zea mays, pre-emergence, 312 h, 250 g ai/ha, read-out: Corn damage rating (100=total damage to plant; 0=no damage to plant)): 80%; pest or weed control at 15.625 g/ha ([5]; Abutilon theophrasti, pre-emergence, 312 h, 15.625 g ai/ha, read-out: Velvetleaf damage rating (100=total damage to plant; 0=no damage to plant)): 0%; pest or weed control at 250 g/ha ([5]; Abutilon theophrasti, pre-emergence, 312 h, 250 g ai/ha, read-out: Velvetleaf damage rating (100=total damage to plant; 0=no damage to plant)): 40%; plant injury at 15.625 g/ha [10]: 30%; plant injury at 62.5 g/ha [10]: 70%; plant injury at 250 g/ha [10]: 80%; pest or weed control at 15.625 g/ha [11]: 10%; pest or weed control at 62.5 g/ha [11]: 30%; pest or weed control at 250 g/ha [11]: 20%; pest or weed control at 15.625 g/ha [12]: 80%; pest or weed control at 62.5 g/ha [12]: 80%; pest or weed control at 250 g/ha [12]: 80%
COc1c(Cl)ccc([C@H]2CN(C)C(=O)[C@@H]2C(=O)Nc2cccc(F)c2F)c1F [Compound 1773]	90%	90%	90%	20%	0%	60%	80%	30%	90%	90%	90%	80%	80%	80%	20%	20%	40%	20%	10%	60%	Pigweed, Redroot damage rating (100=total damage to plant; 0=no damage to plant) ([2]; 15.625 g ai/ha): 20; Pigweed, Redroot damage rating (100=total damage to plant; 0=no damage to plant) ([2]; 250 g ai/ha): 70; Morningglory, Ivy-leaved damage rating (100=total damage to plant; 0=no damage to plant) ([3]; 250 g ai/ha): 80; Corn damage rating (100=total damage to plant; 0=no damage to plant) ([4]; 15.625 g ai/ha): 70; Corn damage rating (100=total damage to plant; 0=no damage to plant) ([4]; 250 g ai/ha): 80; Velvetleaf damage rating (100=total damage to plant; 0=no damage to plant) ([5]; 15.625 g ai/ha): 10; Velvetleaf damage rating (100=total damage to plant; 0=no damage to plant) ([5]; 250 g ai/ha): 60; plant injury at 15.625 g/ha [10]: 70%; plant injury at 62.5 g/ha [10]: 80%; plant injury at 250 g/ha [10]: 80%; pest or weed control at 15.625 g/ha [11]: 0%; pest or weed control at 62.5 g/ha [11]: 20%; pest or weed control at 250 g/ha [11]: 40%; pest or weed control at 15.625 g/ha [12]: 80%; pest or weed control at 62.5 g/ha [12]: 80%; pest or weed control at 250 g/ha [12]: 80%
